Measurements published in patent US20130336899A1, “ANTIMICROBIAL FORMULATIONS THAT AID IN WOUND HEALING” (Purdue Research Foundation, priority 2010, published 2013).

Key:
Format in all cases: cell-based
bacteria [1] = assay: Cell viability with vital stain (propidium iodide, PI); conditions: thymol 2.66 mM, sucrose 1.17 OsM; after 1 hr
Description: FIG. 3A. Photomicrographs of cells that were: untreated; or treated with sucrose, or thymol or sucrose and thymol (S+T).

bacteria [2] = assay: Bactericidal log reduction after 10 and 60 min treatment; conditions: for Log Red - 10 min: 10 min treatment; for Log Red - 60 min: 60 min treatment
Experimental: Referring now to FIG. 4, the bactericidal effect of osmopermeation is fast acting and occurs in less than 10 minutes, as shown. Finally, osmopermeation is wide spectrum in nature and effective in treating both Gram (+) and Gram (−) bacterial strains.

bacteria [3] = assay: Bactericidal action of hypertonic sucrose with or without membrane permeabilizing agent
bacteria [4] = assay: Measurement of 260/280 nm absorbing material (bacteriolysis, loss of intracellular proteins); conditions: sucrose 1.17 OsM, thymol 2.66 mM
E. coli = assay: Dose response, MIC and combination index, 24 hrs of treatment; conditions: thymol emulsion
Description: (§1) Responses represent 24 hrs of treatment. Six specific combinations (S+T) of sucrose and thymol are also plotted for each strain. The effect level (Fa) represents a value between 0 and 1.0 with 0 being no effect and 1.0 being all cells affected. (B) Normalized isobolograms defining the interaction between S and T. Numbered points correspond to the specific combinations enumerated in the table. Table denotes the minimum inhibitory concentrations (MICs) for each treatment as well as outcomes of the six S+T combinations. The nature of the two-treatment interaction is measured via the combination index (CI). The CI<1 is roughly defined as synergistic, ˜1 is additive and CI>1 is antagonistic. See Chou T C. “Theoretical basis, experimental design and computerized simulation of synergism and antagonism in drug combination studies”. Pharmacol. Rev. 2006; […]:621-81. Synergistic interactions were found in combinations with various hyperosmotic pressures and concentrations of the membrane permeabilizing agent.
(§2) Data collected with 4 strains of bacterial E. coli, E, faecalis, S. aureus and MRSA.

E. faecalis = assay: as above; conditions: thymol emulsion
Description: as §1, §2

MRSA = assay: as above; conditions: thymol emulsion
Description: as §1, §2

S. aureus = assay: as above; conditions: thymol emulsion
Description: as §1, §2

## OC[C@H]1O[C@@](CO)(O[C@H]2O[C@H](CO)[C@@H](O)[C@H](O)[C@H]2O)[C@@H](O)[C@@H]1O [Sucrose (S), sucrose]
Bacteria [1]
  effect on cell viability (PI vital stain): little effect on cell viability
Bacteria [2]
  Log Red - 10 min: <0.5
  Log Red - 60 min: <0.2
Bacteria [3]
  bactericidal effect: no bactericidal effect and actually permits cell proliferation

## Cc1ccc(C(C)C)c(O)c1 [Thymol (T), 2-isopropyl-5-methylphenol]
Bacteria [4]; absorbing material released
  280 nm (A.U.): 1.02 A.U.
  absorbance at 260 nm: .99 A.U.
Bacteria [4]; ratio of absorbances
  260/280 nm: 0.97
Bacteria [1]
  effect on cell viability (PI vital stain): little effect on cell viability
Bacteria [2]
  Log Red - 10 min: ~6.4
  Log Red - 60 min: ~6.7
E. coli
  MICT: 2.60 mM
E. faecalis
  MICT: 2.60 mM
MRSA
  MICT: 1.65 mM
S. aureus
  MICT: 1.65 mM
Bacteria [3]
  bactericidal effect: no significant bactericidal effect
